Reference: US8912386B2, “Transgenic pig model of cystic fibrosis” (University of Iowa Research Foundation, priority 2007, dated 2014)
Read-outs that look alike come from different tables or passages of the source. One block for each compound: values may come before it.

Columns and labels:
CFTR^+/+ epithelia = test: Short-circuit current (Isc) response to increasing cAMP agonist concentrations, Ussing chambers, wild-type epithelia; format: cell-based, pig
Excerpt: (§1) These studies were done under conditions of maximal CFTR stimulation. Therefore, we also examined the response to increasing concentrations of forskolin and IBMX (at a fixed ratio of forskolin:IBMX of 1:10) (FIG. 33F,G). The EC50 for CFTR^+/+ epithelia was […]. In contrast, the EC50 for forskolin in CFTR^ΔF508/ΔF508 epithelia was 0.60±0.19
(§2) Because forskolin and IBMX might generate different cellular cAMP concentrations in CFTR^ΔF508/ΔF508 and CFTR^+/+ epithelia, we repeated the experiments with 8-CPT-cAMP, a membrane-permeable cAMP analog (FIG. 33H,I).
(§3) Epithelial tissues were excised from the nasal turbinate and septum, and from trachea through 2nd generation bronchi immediately after animals were euthanized. Tissues and cultured epithelia were studied in modified Ussing chambers. Epithelia were bathed on both surfaces with solution containing (mM): 135 NaCl, 2.4 K2HPO4, 0.6 KH2PO4, 1.2 CaCl2, 1.2 MgCl2, 10 dextrose, 5 HEPES, pH 7.4, at 37° C. and gassed with compressed air. Na-gluconate was substituted for NaCl in […] solutions. Transepithelial voltage (Vt) was maintained at 0 mV to measure short-circuit current (Isc). Transepithelial electrical conductance (Gt) was measured by intermittently clamping Vt to +5 and/or −5 mV.
(§4) A standard protocol was the following. 1) Measurements under basal conditions. 2) 100 μM apical amiloride to inhibit ENaC Na^+ channels. […]

[1] = tested on: CFTR^ΔF508/ΔF508 epithelia; test: Short-circuit current (Isc) response to increasing cAMP agonist concentrations, Ussing chambers, ΔF508 epithelia; format: cell-based, pig
Excerpt: as §1, §2, §3, §4

nasal epithelia = test: In vivo nasal transepithelial voltage (Vt) in newborn piglets; design: species or system pig; conditions: sequential perfusion, amiloride 100 μM, ATP 100 μM, GlyH-101 100 μM
Protocol: The transepithelial voltage (Vt) across the nasal epithelium was measured using previously described methods (Zabner et al., J. Clin. Invest. 97:1504, 1996; Standaert et al., Pediatr. Pulmonol. 37:385, 2004) under propofol anesthesia with the animal spontaneously breathing. The reference electrode was a small Ringer's solution-filled catheter inserted into the leg muscle (25 g needle). The exploring electrode was a 6 french foley catheter filled with Ringer's solution (148 mM NaCl, 2.4 mM KH2PO4, 0.4 mM K2PO4, 2.25 mM CaCl2, 1.2 mM MgCl2) inserted 4 cm into the nasal cavity, and the nasal mucosa was perfused at a rate of 5 ml/min using Ringer's solution to obtain baseline Vt. Subsequent perfusion solutions included: Ringer's solution containing 100 μM amiloride; Cl^−-free Ringer's solution containing gluconate substituted for CF plus amiloride; Cl^−-free Ringer's solution containing amiloride plus 10 μM isoproterenol; Cl^−-free Ringer's solution containing amiloride, isoproterenol, plus 100 μM ATP; Cl^−-free Ringer's solution containing amiloride, isoproterenol, ATP, plus 100 μM GlyH-101. Voltage was measured with a voltmeter connected to a strip chart recorder. Each solution was perfused for 3-5 minutes. Following completion of the measurements, the epithelium was disrupted by brushing and Vt measured again to determine the zero value of Vt.

[2] = tested on: excised trachea epithelia; test: Electrophysiology of freshly excised tracheal epithelia in Ussing chambers; format: cell-based, pig; conditions: 100 μM apical
Excerpt: Values of transepithelial electrical conductance (Gt) were large, probably because of “edge damage” associated with clamping epithelia in Ussing chambers (Helman et al., Am. J. Physiol. Cell Physiol. 225(4):972-977, 1973) (compare with cultured epithelia in FIG. 31, 32).
as §3
A standard protocol was the following. 1) Measurements under basal conditions. 2) 100 μM apical amiloride to inhibit ENaC Na^+ channels. 3) 100 μM apical DIDS (4,4-diisothiocyano stilbene-2,2-disulfonic acid) to inhibit most anion channels other than CFTR. 4) 10 μM forskolin and 100 μM IBMX ([…]) to increase cellular levels of cAMP leading to phosphorylation and activation of CFTR. […]

EC50 (CFTR^+/+ epithelia; wild-type epithelia, read-out: EC50 (change in Isc with increasing 8-CPT-cAMP)): 8 ± 1.3 µM | EC50 ([1]; read-out: EC50 (change in Isc with increasing 8-CPT-cAMP)): 65.2 ± 17.3 µM
SMILES: Nc1ncnc2c1nc(Sc1ccc(Cl)cc1)n2[C@@H]1O[C@@H]2COP(=O)(O)O[C@H]2[C@H]1O [8-CPT-cAMP]

SMILES: Nc1ncnc2c1ncn2[C@@H]1O[C@H](COP(=O)(O)OP(=O)(O)OP(=O)(O)O)[C@@H](O)[C@H]1O [ATP]
Effect on nasal transepithelial voltage (Vt) (nasal epithelia): further hyperpolarized Vt

SMILES: N=C(N)NC(=O)c1nc(Cl)c(N)nc1N [Amiloride, amiloride]
Effect on nasal transepithelial voltage (Vt) (nasal epithelia): reduced Vt in all genotypes | Effect on transepithelial conductance Gt (ΔGtamiloride) ([2]; CFTR^ΔF508/ΔF508 vs CFTR^+/+): reduced Gt (ΔGtamiloride) to a similar extent | Effect on Vt and Isc (ΔVtamiloride, ΔIscamiloride) ([2]; CFTR^ΔF508/ΔF508 vs wild-type): reduced Vt (ΔVtamiloride) and Isc (ΔIscamiloride) in CFTR^ΔF508/ΔF508 more than in wild-type epithelia

SMILES: O=C(CNc1ccc2ccccc2c1)N/N=C/c1cc(Br)c(O)c(Br)c1O [GlyH-101]
Effect on nasal transepithelial voltage (Vt) (nasal epithelia): depolarized Vt in controls, but not CFTR−/− piglets

EC50 (CFTR^+/+ epithelia; Sus scrofa, CFTR^+/+ epithelia, increasing forskolin and IBMX at fixed ratio forskolin:IBMX 1:10, read-out: EC50 for forskolin (change in Isc)): 0.07 ± 0.01 µM | EC50 ([1]; Sus scrofa, increasing forskolin and IBMX at fixed ratio forskolin:IBMX 1:10, read-out: EC50 for forskolin (change in Isc)): 0.6 ± 0.19 µM
SMILES: C=C[C@@]1(C)CC(=O)[C@]2(O)[C@@]3(C)[C@@H](O)CCC(C)(C)[C@@H]3[C@H](O)[C@H](OC(C)=O)[C@@]2(C)O1 [forskolin]
